Results reported in the NIST ThermoML archive (doi:10.1021/je049626l).
“And” between values parts separate entries of the source, which are not always exact repeats. Identical values can stand only once.

Tests used:
[1] = Crystal; for Normal melting temperature: DTA
[2] = molar enthalpy of vaporization or sublimation; conditions: Liquid, DSC

O=C(O)CCCOc1ccc(Cl)cc1Cl [4-(2,4-dichlorophenoxy)butanoic acid]
Conditions | molar enthalpy [kcal/mol] | vapor or sublimation pressure
[1], 356.5 K | – | 8.48e-05 kPa
[1], 358 K | – | 0.000106 kPa
[1], 359.5 K | – | 0.000127 kPa
[1], 360 K | – | 0.000148 kPa and 0.000157 kPa
[1], 361 K | – | 0.000148 kPa
[1], 361.5 K | – | 0.00017 kPa
[1], 362.5 K | – | 0.000191 kPa
[1], 363 K | – | 0.000212 kPa and 0.000252 kPa
[1], 363.5 K | – | 0.000212 kPa and 0.000233 kPa
[1], 365.5 K | – | 0.000255 kPa
[1], 366.5 K | – | 0.000297 kPa
[1], 367 K | – | 0.000339 kPa
[1], 367.5 K | – | 0.000377 kPa
[1], 368 K | – | 0.000382 kPa
[1], 369 K | – | 0.000467 kPa
[1], 369.5 K | – | 0.000445 kPa
[1], 370 K | – | 0.000488 kPa and 0.000467 kPa
[1], 372 K | – | 0.000721 kPa
[1], 372.5 K | – | 0.000679 kPa and 0.000636 kPa
[1], 373 K | – | 0.000764 kPa and 0.000786 kPa
[1], 374 K | – | 0.000806 kPa
[1], 375 K | – | 0.000933 kPa and 0.00106 kPa
[1], 377 K | – | 0.00106 kPa and 0.00123 kPa
[1], 377.5 K | – | 0.00123 kPa
[1], 378 K | – | 0.00138 kPa and 0.0017 kPa
[1], 380 K | – | 0.00161 kPa
[1], 381 K | – | 0.00229 kPa
[1], 382 K | – | 0.00221 kPa
[1], 383 K | – | 0.00297 kPa and 0.00283 kPa
[1], 384 K | – | 0.00297 kPa
[1], 386 K | – | 0.00369 kPa and 0.0044 kPa
[1], 386.5 K | – | 0.00365 kPa
[1], 387 K | – | 0.00458 kPa
[1], 389 K | – | 0.00539 kPa
[1], 389.5 K | – | 0.00526 kPa
[1], 391 K | – | 0.0067 kPa and 0.00666 kPa
[2], 485.7 K | 19.4 | –
[2], 495 K | 19.4 | –
[2], 501.1 K | 19.4 | –

Conditions | Normal melting temperature [°C]
[1] | 120.1

O=C(O)COc1ccc(Cl)cc1Cl [2,4-dichlorophenoxyethanoic acid]
Conditions | molar enthalpy [kcal/mol] | vapor or sublimation pressure
[1], 346 K | – | 8.48e-05 kPa
[1], 348 K | – | 0.000157 kPa
[1], 348.5 K | – | 0.000127 kPa
[1], 351 K | – | 0.00017 kPa
[1], 351.5 K | – | 0.000127 kPa
[1], 352 K | – | 0.000212 kPa
[1], 353 K | – | 0.000255 kPa and 0.000314 kPa
[1], 354.5 K | – | 0.000276 kPa and 0.000212 kPa
[1], 357 K | – | 0.000472 kPa
[1], 357.5 K | – | 0.000382 kPa
[1], 358 K | – | 0.000318 kPa
[1], 358.5 K | – | 0.000382 kPa
[1], 360 K | – | 0.000445 kPa and 0.000629 kPa
[1], 360.5 K | – | 0.000488 kPa
[1], 361 K | – | 0.000551 kPa
[1], 361.5 K | – | 0.000573 kPa
[1], 362.5 K | – | 0.000573 kPa
[1], 363 K | – | 0.000721 kPa and 0.000679 kPa
[1], 364.5 K | – | 0.000806 kPa
[1], 365.5 K | – | 0.000933 kPa and 0.00126 kPa
[1], 366 K | – | 0.000976 kPa and 0.000848 kPa
[1], 369 K | – | 0.00132 kPa and 0.0014 kPa and 0.0011 kPa
[1], 370 K | – | 0.00136 kPa and 0.00204 kPa
[1], 370.5 K | – | 0.00153 kPa
[1], 371 K | – | 0.0017 kPa
[1], 373 K | – | 0.00174 kPa
[1], 374 K | – | 0.00255 kPa
[1], 375 K | – | 0.00255 kPa and 0.00212 kPa
[1], 375.5 K | – | 0.00229 kPa
[1], 377 K | – | 0.00297 kPa
[1], 378 K | – | 0.00293 kPa and 0.00481 kPa
[1], 379 K | – | 0.00361 kPa
[1], 379.5 K | – | 0.00344 kPa
[1], 380.5 K | – | 0.00386 kPa
[1], 383.5 K | – | 0.00509 kPa
[1], 385 K | – | 0.00594 kPa
[1], 386 K | – | 0.00628 kPa
[1], 387 K | – | 0.0067 kPa
[2], 479.1 K | 18.2 | –
[2], 489.5 K | 18.2 | –
[2], 503.3 K | 18.4 | –

Conditions | Normal melting temperature [°C]
[1] | 141.4

COC(=O)COc1ccc(Cl)cc1Cl [methyl 2,4-dichlorophenoxyethanoate]
Conditions | Normal melting temperature [°C]
[1] | 37.6

[2]
Conditions | molar enthalpy [kcal/mol]
415.2 K | 14.1
424.4 K | 14.3
430.4 K | 14.3

COC(=O)CCCOc1ccc(Cl)cc1Cl [butanoic acid, 4-(2,4-dichlorophenoxy)-, methyl ester]
Conditions | Normal melting temperature [°C]
[1] | 35.0

[2]
Conditions | molar enthalpy [kcal/mol]
456 K | 15.8
463.4 K | 16.3
469.8 K | 16.3

CC(Oc1ccc(Cl)cc1Cl)C(=O)O (configuration not stated) [2-(2,4-dichlorophenoxy)propanoic acid]
Conditions | molar enthalpy [kcal/mol] | vapor or sublimation pressure
[1], 343 K | – | 0.000157 kPa
[1], 347 K | – | 0.000267 kPa and 0.000297 kPa
[1], 352 K | – | 0.000551 kPa
[1], 353 K | – | 0.000503 kPa
[1], 356 K | – | 0.000764 kPa and 0.000708 kPa
[1], 358 K | – | 0.000849 kPa
[1], 359 K | – | 0.000912 kPa
[1], 360 K | – | 0.00126 kPa
[1], 361 K | – | 0.00126 kPa and 0.00153 kPa
[1], 364 K | – | 0.00223 kPa
[1], 365 K | – | 0.00208 kPa
[1], 366 K | – | 0.00252 kPa and 0.00339 kPa
[1], 368 K | – | 0.00361 kPa
[1], 370 K | – | 0.00445 kPa
[1], 371 K | – | 0.00481 kPa
[1], 372 K | – | 0.00472 kPa
[1], 374 K | – | 0.00721 kPa
[1], 375 K | – | 0.00692 kPa
[2], 466.7 K | 18.2 | –
[2], 474 K | 18.2 | –
[2], 477.9 K | 18.2 | –

Conditions | Normal melting temperature [°C]
[1] | 116.6
